Measured values from publication PMC10606834, “Is the Neuropeptide PEN a Ligand of GPR83?” (International Journal of Molecular Sciences, 2023).

Assays:
[1] = test system: GPR83 and GPR83del with Gα16 (HEK293); experiment: Intracellular calcium mobilization, Gα16-transfected HEK293 cells; format: cell-based, human; conditions: 10 µM PEN, 100 µM carbachol, 100 µM ATP, Fluo4-AM fluorescence, duplicate, repeated at least two times
Protocol: (§1) As activation of many GPCRs is coupled to calcium mobilization from intracellular stores, GPR83 was probed for ligand-dependent calcium release. Wild-type HEK293 cells and HEK293 clones overexpressing either full-length GPR83 or the N-terminal deletion variant GPR83del were exposed to buffer or one of two independent synthesis batches (PEN #1 and PEN #2) of the neuropeptide PEN, while calcium indicator fluorescence was recorded. […] Calcium release was also tested in a second cell line, osteosarcoma U2OS cells, using various stably expressing clones. […] Therefore, HEK293 cells transfected with Gα16 were employed to investigate a potential GPR83-dependent calcium mobilization with PEN. […] A number of GPCRs show ligand-independent basal calcium activity. However, in an experiment comparing basal calcium levels in wild-type HEK293 cells and in HEK293 clones overexpressing four different variants of GPR83, they were not found to be different (Figure 2D).
(§2) Figure 2 Investigation of ligand-dependent and ligand-independent intracellular calcium mobilization. (A) Wild-type HEK293 cells and HEK293 cell clones overexpressing either GPR83 or the deletion variant GPR83del were incubated with either buffer or the specified ligand (10 µM PEN or co mix = 100 µM carbachol, 100 µM ATP, 40 µM dimaprit, or 50 µM ionomycin). (B) Calcium indicator fluorescence intensity traces over 60 s of various U2OS cell clones overexpressing untagged or HA-tagged GPR83 or the deletion variant GPR83del before and after the addition of buffer or ligand (co mix as in (A) or 50 µM ionomycin or 10 µM PEN). […]
(§3) Cells were seeded at 50,000 cells/well in a poly-D-lysine coated 96-well black well/clear bottom plate (BD Falcon, Franklin Lakes, NJ, USA) and cultured overnight. […] Fluorescence was recorded with the fluorescence imaging plate reader CellLux (Perkin Elmer, Waltham, MA, USA) simultaneously in all wells at an excitation wavelength of 488 nm and emission wavelength of 510 nm in 1.5 s intervals over a period of 4 min. Fluorescence data were generated in duplicate, and experiments were repeated at least two times.

[2] = test system: GPR83 and deletion variant GPR83del (HEK293 clones; wild-type HEK293 as comparison); experiment: Intracellular calcium mobilization, HEK293 cells; format: cell-based, human; conditions: 10 µM PEN; co mix = 100 µM carbachol, 100 µM ATP, 40 µM dimaprit; 50 µM ionomycin; HEK293 wild-type, GPR83 or GPR83del clones; Fluo4-AM fluorescence, compared with buffer; duplicate, repeated at least two times
Protocol: as §1, §2, §3

For `Nc1ncnc2c1ncn2[C@@H]1O[C@H](COP(=O)(O)OP(=O)(O)OP(=O)(O)O)[C@@H](O)[C@H]1O` [ATP], the calcium signal [1] was “strongly enhanced the calcium signal”.

For `C[N+](C)(C)CCOC(N)=O` [carbachol], the calcium signal [1] was “strongly enhanced the calcium signal”.

`C[C@H](CCC(=O)O)C[C@H](C)C[C@H](C)C(=O)/C=C(\O)[C@H](C)C[C@H](C)C/C=C/[C@@H](C)[C@@H](O)[C@@H](C)[C@@H](O)C[C@@H]1CC[C@@](C)([C@H]2CC[C@@](C)([C@@H](C)O)O2)O1` [ionomycin, reference compound] was tested, and the calcium signal [2] was “clear calcium signal above buffer background”.
